What all share (assay): inhibition of tumour cell growth, NCI panel, 48 h
The subject of test [1] is MOLT-4 leukemia.
For test [2], the system named is SF-295 CNS.
The subject of test [3] is HCT-116 colon.
Test [4] has as its system OVCAR-5 ovarian.
The subject of test [5] is UACC-257 melanoma.
Test [6] relates to RXF 393 renal.
Test [7] concerns CAKI-1 renal.
The subject of test [8] is K-562 leukemia.
Test [9] has as its system RPMI-8226 leukemia.
Test [10] deals with HS 578T breast.
The test system of test [11] is DU-145 prostate.
The subject of test [12] is NCI/ADR-RES ovarian.
Test [13] relates to 786-0 renal.
In test [14] the test system is SF-268 CNS.
In test [15] the test system is UO-31 renal.
Test [16] deals with CCRF-CEM leukemia.
Test [17] relates to KM12 colon.
Test [18] has as its system OVCAR-4 ovarian.
Test [19] relates to SK-OV-3 ovarian.

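In this assay, cells in 96-well plates receive the compound at five concentrations for 48 hours. Endpoints are linearly interpolated between the surrounding concentrations. At the TGI there is no net growth.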

Consider `Cc1cc(-c2nc3ccc(F)cc3s2)ccc1N`, for which the TGI in test [1], in test [2], in test [3], in [4], in test [5] and in test [6] was over 100 µM each time. Further, the TGI in [7], in test [8], in test [9], in test [10], in test [11] and in test [12] was over 100 µM each time. The TGI in test [13], in test [14], in test [15], in test [16] and in test [17] was over 100 µM each time.
With `CCOC(=O)c1ccc(Nc2nc3ccccc3nc2C(=O)OCC)cc1`, the TGI in test [1], in [18], in test [3], in test [4], in [19] and in test [7] was over 100 µM in each case. The TGI in test [8], in test [9], in test [10], in test [11], in [12] and in test [13] was over 100 µM throughout. Besides, the TGI in [14], in test [15], in test [16] and in [17] was over 100 µM in each case.
With `Clc1cc(Br)c2c3c(c(Br)cc(Cl)c13)C(Br)=C2Br`, the TGI is 45.6 µM in test [1]; over 100 µM in test [18]; over 100 µM in test [2]; 40.3 µM in test [3]; over 100 µM in test [4]; over 100 µM in test [5]. Also, the TGI is over 100 µM in [19]; over 100 µM in test [8]; 58.9 µM in [9]; over 100 µM in test [10]; 90.9 µM in test [11]; 57.8 µM in test [12]. The TGI in test [13] is 47.7 µM; in [14], 70.4 µM; in test [15] it was over 100 µM; in test [17], over 100 µM.
`CN(C)Cc1cc(C=O)cc(CN(C)C)c1O`: the TGI in test [1], in test [18], in [2], in test [3], in test [5] and in test [6] was over 100 µM throughout. Moreover, the TGI in test [8], in test [9], in [10], in test [11], in [12] and in [13] was over 100 µM in each case. Further, the TGI in test [14], in [15], in [16] and in test [17] was over 100 µM each time.
With `CCOP(=O)(OCC)[C@H]1OC(C)(C)O[C@@H]1CO`, the TGI in [1], in test [18], in test [2], in test [3], in [4] and in [5] was over 100 µM in each case. For the same compound, the TGI in test [19], in test [7], in [9], in [10], in test [11] and in [12] was over 100 µM throughout. The TGI in test [13], in test [14], in test [16] and in test [17] was over 100 µM in each case.
Turning to `CCC1C(=O)C(O)[C@H]2[C@@H]3C(O)CC4=CC(=O)CC[C@]4(C)[C@H]3CC[C@]12C` (stereo partly drawn), the TGI in [1], in test [2], in test [3], in test [4], in test [5] and in test [19] was over 50 µM each time. Further, the TGI in test [7], in test [8], in test [9], in test [10], in test [11] and in test [12] was over 50 µM throughout. The TGI in test [13], in test [14], in [15], in test [16] and in [17] was over 50 µM in each case.
In the case of `Cc1ccc(C)c2c1CC(Cc1ccccc1C(=O)O)C2=O` (stereo not drawn), the TGI in test [1], in test [18], in test [2], in [3], in [4] and in test [5] was over 100 µM throughout. In addition, the TGI in test [19], in test [6], in test [7], in [8], in test [10] and in test [11] was over 100 µM each time. The TGI in test [12], in test [13], in [14], in test [15], in [16] and in [17] was over 100 µM in each case.
With `CNC(=O)CN(C)C(=O)CCC(=O)N(C)C`, the TGI in test [1], in test [2], in test [3], in test [4], in test [5] and in test [19] was over 100 µM in each case. Besides, the TGI in test [7], in test [8], in test [9], in test [10], in [11] and in test [12] was over 100 µM in each case. Further, the TGI in [13], in test [14], in [15], in [16] and in test [17] was over 100 µM throughout.

The record behind these values is PubChem BioAssay (NCI).
